“Also recorded” adds a separate entry of the source.
Columns and labels:
LAK cells = assay: LAK cell induction in vivo, 51Cr release of lymph node and spleen cells against RD-995 tumor; design: species or system mice
Experimental: Parallel groups of untreated mice or mice receiving M40403 alone (at the highest dose tested of 3 mg/kg) served as a control. […] A single cell suspension was prepared from the lymph nodes and spleen from each animal, and serial dilutions made (starting from 10^6). Cytolytic activity of lymph node and spleen cells was tested against ^51Cr-radiolabeled RD-995 tumor (NK resistant, LAK sensitive, 10^4 cells) in a standard 4h ^51Cr release assay at a varying effector to target cell ratio (in triplicate). […] Statistical comparison of specific cytotoxicity (e.g. at 100:1 effector to target ratio) and lytic units per organ will be performed using Student's t-test, using Bonferroni's correction for multiple analyses.

mice [1] = assay: IL-2 induced hypotension in mice, systolic blood pressure via tail cuff; assay type: in vivo
Experimental: Parallel groups of untreated mice or mice receiving M40403 alone (at the highest dose tested of 3 mg/kg) served as a control. […] Analysis was performed using Chart 3.6.1 software (AD instruments).
Preliminary experiments were also performed with M40401.

Meth A tumor [2] = assay: NO-mediated apoptosis of Meth A tumor (not shown); assay type: cell-based, mouse
NO = assay: Inhibition of NO (not shown)
Meth A tumor [3] = assay: Meth A fibrosarcoma tumor model (malignant ascites), survival; assay type: in vivo, BALB/c mice
Text: Meth A was induced in a BALB/c mouse by methylcholanthrene treatment (obtained from Lloyd Old, MSKCC). This very aggressive fibrosarcoma is one of the rare tumors resistant to LAK cell mediated cytolysis in vitro. […] See Yim et al., J. Immunol. 155: 4382-4390 (1995).
Survival of the mice was used as the major endpoint to assess therapeutic responses.

mice [4] = assay: IL-2 dose escalation study with or without M40403 (deaths, blood pressure); assay type: in vivo
Experimental: Analysis was performed using Chart 3.6.1 software (AD instruments).

RD-995 tumor = assay: Rosenberg tumor model, RD-995 pulmonary metastases; assay type: in vivo, mice
Experimental: RD-995 is a skin fibrosarcoma that was induced by chronic ultraviolet light exposure of a C3H/HeN mouse (Samlowski et al., 1995). This tumor grows in non-immunosuppressed mice, and is thus termed a “progressor” tumor.
Once stabilized, mice were injected with 10^6 RD-995 tumor cells intravenously. […] On day 14, mice were sacrificed by anesthetic overdose. After anterior thoracotomy, India ink solution (30 ml India ink, 4 drops ammonium hydroxide in 170 ml distilled water) was instilled into the trachea of each mouse via 18 ga. needle, until the lungs were completely expanded. Lungs were then excised and bleached in 5-10 ml Fekete's solution (100 ml 70% ethanol, 10 ml formaldehyde, 5 ml glacial acetic acid) for at least 24 h prior to enumeration of metastases using a magnifying lens.

murine (mouse) LAK cell = assay: LAK cell induction in vitro, murine splenocytes activated with IL-2, cytotoxicity against RD-995 tumor, trypan blue viability; assay type: cell-based
Experimental: Non-M40403 exposed cultures served as a positive control. After 72 h, LAK cells were harvested and cell viability evaluated. LAK cells cytotoxicity was tested against RD-995 tumor in triplicate samples at varying effector to target cell ratios (expressed as mean±SD) using previously published methods (Yim et al., 1994; Samlowski et al., 1998).
Cell viability was assessed by trypan blue exclusion. Viability remained at 100% of control at up to 10 μM M40403 (not shown).

[5] = M40403 3 mg/kg i.p. b.i.d. in conjunction with IL-2 180,000 IU for 5 days
[6] = M40403 at highest dose, 3 mg/kg b.i.d. for 5 days

[Cl-].[Cl-].[Mn+2].c1cc2nc(c1)CN[C@@H]1CCCC[C@H]1NCCN[C@@H]1CCCC[C@H]1NC2 [M40403]
IL-2 induced LAK cells activation in vivo, lymph nodes (LAK cells; [5]): significantly potentiated
IL-2 induced LAK cells activation in vivo, spleen (LAK cells; [5]): significantly potentiated
LAK cell induction in vivo (LAK cells; M40403 by itself, 3 mg/kg): did not increase
effect on systolic blood pressure (mice [1]; [6]): no effect on systolic blood pressure
signs of toxicity (mice [1]; [6]): no apparent signs of toxicity
reversal / attenuation of IL-2 induced hypotension (mice [1]; SOD mimetic i.p. b.i.d. in conjunction with IL-2 180,000 IU for 5 days): attenuated in a dose-dependent manner
dose at which maximal / full reversal of IL-2 induced hypotension was obtained (mice [1]; b.i.d. with IL-2 for 5 days): 3 mg/kg
Mean Systolic BP (mice [1]; mice, n=6 per group, IL-2 180,000 IU i.p. twice daily for 5 days, M40403 alone at 3 mg/kg, tail cuff two hours after last dose of IL-2): 111.21
systolic BP, mean (mice [1]; mice, n=6 per group, IL-2 180,000 IU i.p. twice daily for 5 days, M40403 alone at 3 mg/kg, two hours after last dose of IL-2): 111±45 mmHg
effect on NO-mediated apoptosis of Meth A tumor (Meth A tumor [2]): does not affect
inhibition of NO (NO): does not inhibit
IL-2 induced anti-tumor responses, combination of IL-2 with M40403 (Meth A tumor [3]; IL-2 180,000 IU s.c. with M40403 3 mg/kg s.c.): improves IL-2 induced anti-tumor responses
effect on survival (Meth A tumor [3]; M40403 itself, 3 mg/kg s.c.): did not affect survival
blood pressure under escalating doses of IL-2 (mice [4]; M40403 3 mg/kg i.p. b.i.d. in conjunction with IL-2): allowed BP to be maintained
deaths (mice [4]; M40403 3 mg/kg i.p. b.i.d. in conjunction with IL-2, all doses of IL-2 (180,000-400,000 IU)): 0 deaths of 6 mice
effect on the anti-tumor effects of IL-2 (RD-995 tumor; M40403 3 mg/kg concurrently with IL-2): did not affect the anti-tumor effects of IL-2
number of tumor nodules in lungs (RD-995 tumor; single agent, IL-2 180,000 IU i.p. every 12 h for 5 days or M40403 3 mg/kg, day 14): completely eliminated
effect on murine LAK cell activation by IL-2 (murine (mouse) LAK cell; M40403 0-10 μM during IL-2 activation (6000 IU/ml rhIL-2), 72 h): did not adversely affect; also recorded: do not adversely affect
dose dependence of LAK cell activation (murine (mouse) LAK cell; increasing concentrations of M40403 during IL-2 activation): dose-dependent increase
cell viability (murine (mouse) LAK cell; up to 10 μM M40403, trypan blue exclusion): 100 % of control

From patent US20050175580A1, “Compositions and methods for enhancing cytokine activity and treating hypotension associated with the administration of cytokines” (priority 2001, published 2005)
